Assay results as given in patent US6489364B2, “Antiviral protease inhibitors” (priority 1997, dated 2002).
In brackets after ≈: the same amount, converted by molar mass. Like-named read-outs stand apart in the source and are kept apart here.

Experiments:
purified HIV proteinase = molecular target: T1, purified HIV proteinase (Human immunodeficiency virus type 1 group M subtype B, UniProt P04585); experiment: biochemical
T1 construct: purified HIV proteinase
Procedure: Representative compounds were tested for HIV protease activity in a spectrophotometric enzyme assay using the chromogenic substrate His-Lys-Ala-Arg-Val-Leu-p-nitro-Phe-Glu-Ala-Nle-Ser-amide and purified HIV proteinase. The rate of cleavage is followed by continuously registering the change in absorbance at 300 nm. […]

HIV-1 = HIV-1 infected MT4 cell culture, XTT assay; type: cell-based
Procedure: Compounds are also tested for HIV protease activity in cell culture. MT4 cells grown in RPMI 1640 cell culture medium including 10% fetal calf serum are infected with 10 TCID HIV-1 per 2×10^5 cells and cultured for 6 days. XTT is added and the amount of XTT formazan produced in the following 6 hours represents the number of surviving cells. Results are expressed as the ED50, that is the concentration in μg/ml of the compound of the invention which suppresses viral replication by 50%.

[1] = values in parentheses, affinity constant, read-out: (Ki μM)
[2] = Human immunodeficiency virus 1, MT4, 144 h
[3] = Human immunodeficiency virus 1, 144 h, second part of Table 1, head EC50, MT4 cells, HIV-1, 6 days, XTT, read-out: EC50

SMILES	Ki (purified HIV proteinase) [nM]	Ki (purified HIV proteinase; [1]) [nM]	EC50 (HIV-1; [3]) [µg/mL]	also measured
O=C(NC1c2ccccc2CC1O)C(OCc1ccccc1)C(O)C(O)C(OCc1ccccc1)C(=O)NC1c2ccccc2CC1O [Example 10, N1,N6-di[(1S,2R)-2-hydroxy-2,3-dihydro-1H-1-indenyl]-(2R,3R,4R,5R)-2.5-di(benzyloxy)-3,4-dihydroxyhexanediamide]	1.6	–	–	–
CCC(C)[C@H](NC(=O)[C@H](OCc1ccccc1)[C@H](O)[C@@H](O)[C@@H](OCc1ccccc1)C(=O)N[C@H](C(=O)NC)C(C)CC)C(=O)NC (stereo partly drawn) [Example 4, N1,N6-di[(1S)-2-methyl-1-(methylcarbamoyl)butyl]-(2R,3R,4R,5R)-2,5-di(benzyloxy)-3,4-dihydroxyhexanediamide]	–	9	–	–
CNC(=O)C(NC(=O)C(CC(O)C(OCc1ccccc1)C(=O)NC(C(=O)NC)C(C)C)OCc1ccccc1)C(C)C [Example 3, N1,N6-di[(1S)-2-methyl-1-(methylcarbamoyl)propyl]-(2R,3R,5R)-2,5-di(benzaloxy)-3-hydroxyhexanediamide]	–	–	–	IC50 (purified HIV proteinase; values printed without parentheses, concentration inhibiting enzyme performance by 50%): 4 nM
CNC(=O)[C@@H](NC(=O)[C@H](OCc1ccc(-c2ccsc2)cc1)[C@H](O)[C@@H](O)[C@@H](OCc1ccc(-c2ccsc2)cc1)C(=O)N[C@H](C(=O)NC)C(C)C)C(C)C [Example 15, N1,N6-di[(1S)-2-methyl-1-(methylcarbamoyl)propyl]-(2R,3R,4R,5R)-2,5-di[4-(3-thienyl)benzyloxy]-3,4-dihydroxyhexanediamide]	1.2	–	–	EC50 (HIV-1; [2]): 0.03 µg/mL (≈ 0.0385 µM)
O=C(N[C@H]1c2ccccc2C[C@H]1O)[C@H](OCc1ccccc1F)[C@H](O)[C@@H](O)[C@@H](OCc1ccccc1F)C(=O)N[C@H]1c2ccccc2C[C@H]1O [Example 12, N1,N6-di[(1S,2R)-2-hydroxy-2,3-dihydro-1H-1-indenyl]-(2R,3R,4R,5R)-2,5-di(2-fluorobenzyloxy)-3,4-dihydroxyhexanediamide]	–	0.13	0.04 (≈ 0.0581 µM)	–
CNC(=O)[C@@H](NC(=O)[C@H](OCc1ccc(C2=C(O)C(=O)CCC2)cc1)[C@H](O)[C@@H](O)[C@@H](OCc1ccc(C2=C(O)C(=O)CCC2)cc1)C(=O)N[C@H](C(=O)NC)C(C)C)C(C)C [Example 33]	0.5	–	–	EC50 (HIV-1; [2]): 0.2 µg/mL (≈ 0.24 µM)
CC(C)C(NC(=O)C(OCc1ccccc1)C(O)C(O)C(OCc1ccccc1)C(=O)NC(C(=O)NC1CC1)C(C)C)C(=O)NC1CC1 [Example 8, N1,N6-di[(1S)-2-methyl-1-(cyclopropylcarbamoyl)propyl]-(2R,3 R,4R,5R)-25-di(benzyloxy)-3,4-dihydroxyhexanediamide]	–	3.4	–	–
CNC(=O)[C@@H](NC(=O)[C@H](OCc1ccc(/C=C/C(=O)OC)cc1)[C@H](O)[C@@H](O)[C@@H](OCc1ccc(/C=C/C(=O)OC)cc1)C(=O)N[C@H](C(=O)NC)C(C)C)C(C)C [Example 31]	0.09	–	–	EC50 (HIV-1; [2]): 0.3 µg/mL (≈ 0.383 µM)
CC(C)[C@H](NC(=O)[C@H](OCc1ccccc1)[C@H](O)[C@@H](O)[C@@H](OCc1ccccc1)C(=O)N[C@H]1c2ccccc2C[C@H]1O)C(=O)NCc1ccccn1 [Example 28, N1-[(1S,2R)-2-hydroxy-2,3-dihydro-1H-1-indenyl]-N6-[(1S)-2-methyl-1-([2-pyridylmethyl]carbamoyl)propyl]-(2R,3R,4R,5R,)-2,5-di(benzyloxy)-3,4-dihydroxyhexanediamide]	–	–	–	EC50 (HIV-1; second part of Table 1, head EC50, MT4 cells, HIV-1, 6 days, XTT): 0.2 µg/mL (≈ 0.281 µM)
CNC(=O)C(NC(=O)C(OCc1ccc(-c2ccccc2)cc1)C(O)C(O)C(OCc1ccc(-c2ccccc2)cc1)C(=O)NC(C(=O)NC)C(C)C)C(C)C [Example 14, N1,N6-di[(1S)-2-methyl-1-(methylcarbamoylpropyl]-(2R,3R,4R,5R)-2,5-di[(4-phenylbenzyl)oxy]-3,4-dihydroxyhexanediamide]	0.67	–	–	EC50 (HIV-1; [2]): 0.04 µg/mL (≈ 0.0522 µM)
CNC(=O)C(NC(=O)C(OCc1cccc(F)c1)C(O)C(O)C(OCc1cccc(F)c1)C(=O)NC(C(=O)NC)C(C)C)C(C)C (centres unmarked) [Example 17]	–	2	0.8 (≈ 1.23 µM)	–
CNC(=O)C(NC(=O)C(OCc1ccccc1)C(O)C(O)C(OCc1ccccc1)C(=O)NC1c2ccccc2CC1O)C(C)C [Example 11, N1-[(1S,2R)-2-hydroxy-2,3-dihydro-1H-1-indenyl]-N6-[(1S)-2-methyl-1-(methylcarbamoyl)propyl]-(2R,3R,4R,5R,)-2,5-di(benzyloxy)-3,4-dihydroxyhexanediamide]	–	1.2	0.2 (≈ 0.316 µM)	–
O=C(N[C@H]1c2ccccc2C[C@H]1O)[C@H](OCc1ccc(F)cc1)[C@H](O)[C@@H](O)[C@@H](OCc1ccc(F)cc1)C(=O)N[C@H]1c2ccccc2C[C@H]1O [Example 13, N1,N6-di[(1S,2R)-2-hydroxy-2,3-dihydro-1H-1-indenyl]-(2R,3R,4R,5R)-2,5-di(4-fluorobenzyloxy)-3,4-dihydroxyhexanediamide]	–	0.07	0.2 (≈ 0.29 µM)	–
O=C(NCc1c(F)cccc1Cl)[C@H](OCc1ccccc1F)[C@H](O)[C@@H](O)[C@@H](OCc1ccccc1F)C(=O)N[C@H]1c2ccccc2C[C@H]1O [Example 27, N1-[(1S,2R)-2-hydroxy-2,3-dihydro-1H-1-indenyl]-N6-(2-chloro-6-fluorobenzyl)-(2R,3R,4R,5R,)-2,5-di(2-fluorobenzyloxy)-3,4-dihydroxyhexanediamide]	–	1.4	0.8 (≈ 1.14 µM)	–
O=C(N[C@H]1c2ccccc2C[C@H]1O)[C@@H](C[C@@H](O)[C@@H](OCc1ccccc1)C(=O)N[C@H]1c2ccccc2C[C@H]1O)OCc1ccccc1 [Example 26, N1,N6-di[(1S,2R)-2-hydroxy-2,3-dihydro-1H-1-indenyl]-(2R,3R,5R)-2,5-di(benzyloxy)-3-hydroxyhexanediamide]	–	0.97	0.8 (≈ 1.26 µM)	–
CNC(=O)C(NC(=O)C(OCc1ccc(-c2ccccn2)cc1)C(O)C(O)C(OCc1ccc(-c2ccccn2)cc1)C(=O)NC(C(=O)NC)C(C)C)C(C)C [Example 22, N1,N6-di[(1S)-2-methyl-1-(methylcarbamoyl)propyl]-(2R,3R,4R,5R)-2.5-di[4-(2-pyridyl)benzyloxy]-3,4-dihydroxyhexanediamide]	0.61	–	–	EC50 (HIV-1; [2]): 0.4 µg/mL (≈ 0.52 µM)
CCOC1=C(c2ccc(CO[C@@H](C(=O)N[C@H](C(=O)NC)C(C)C)[C@H](O)[C@@H](O)[C@@H](OCc3ccc(C4=C(OCC)C(=O)CCC4)cc3)C(=O)N[C@H](C(=O)NC)C(C)C)cc2)CCCC1=O [Example 32]	–	0.3	0.2 (≈ 0.224 µM)	–
CNC(=O)[C@@H](NC(=O)[C@H](OCc1ccccc1)[C@H](O)[C@@H](O)[C@@H](OCc1ccccc1)C(=O)N[C@H](C(=O)NC)C(C)C)C(C)C [Example 1, N1,N6-di[(1S)-2-methyl-1-(methylcarbamoyl)propyl]-(2R,3R,4R,5R)-2,5-di(benzyloxy)-3,4-dihydroxyhexanediamide]	–	–	–	IC50 (purified HIV proteinase): 15 nM
CNC(=O)[C@@H](NC(=O)[C@H](OCc1ccc(F)cc1)[C@H](O)[C@@H](O)[C@@H](OCc1ccc(F)cc1)C(=O)N[C@H](C(=O)NC)C(C)C)C(C)C [Example 7, N1,N6-di[(1S)-2-methyl-1-(methylcarbamoyl)propyl]-(2R,3R,4R,5R)-2,5-di[(4-fluorobenzyl)oxy]-3,4-dihydroxyhexanediamide]	–	2.3	–	–
CNC(=O)[C@@H](NC(=O)[C@H](OCc1ccccc1C)[C@H](O)[C@@H](O)[C@@H](OCc1ccccc1C)C(=O)N[C@H](C(=O)NC)C(C)C)C(C)C [Example 9, N1,N6-di[(1S)-2-methyl-1-(methylcarbamoyl)propyl]-(2R,3R,4R,5R)-2,5-di[(2-methylbenzyl)oxy]-3,4-dihydroxyhexanediamide]	–	3.5	–	–
